From US20220169628A1 (University of Florida Research Foundation, Incorporated, priority 2019, published 2022)
pIC50: −log10 of the molar value. Like-named read-outs stand apart in the source and are kept apart here.

What was measured:
Type in all cases: cell-based
MOLT-4 cells [1] = assay: Cell viability assay, MTS, 72 h, MOLT-4; details: Homo sapiens; MOLT-4 cells, 72 h, MTS
Protocol: (§1) Cancer cells from different tissue origins including acute lymphoblastic leukemia (MOLT4 and RS4; 11), small cell lung cancer (NCI-H146 or simply H146), and multiple myeloma (EJM and H929) were incubated with increasing concentrations of Examples 1-21 or ABT-263 for 72 h. Cell viability was measured by tetrazolium-based MTS assay. 5×10^4 to 1×10^5 suspension cells or 3×10^3 to 5×10^3 adherent cells were seeded and treated in 96-well plates for 72 h. The EC50 values of individual agents were calculated with GraphPad Prism.

RS4 cells = assay: Cell viability assay, MTS, 72 h, RS4;11; details: Homo sapiens
Protocol: as §1

MOLT-4 cells [2] = assay: Cell viability assay, MTS, 48 h, MOLT-4; details: 48 hours, read-out: IC50 (48 hours) MOLT-4
Protocol: (§2) Acute lymphoblastic leukemia cells (MOLT-4 and RS4; 11) or small cell lung cancer (NCI-H146 or simply H146) were incubated with increasing concentrations of Bcl-xL degraders for 48 h. Cell viability was measured by tetrazolium-based MTS assay.

RS4;11 cells = assay: Cell viability assay, MTS, 48 h, RS4;11; details: 48 hours, read-out: IC50 (48 hours) RS4;11
Protocol: as §2

| pIC50 (MOLT-4 cells [1]) | pIC50 (RS4 cells) | Compound | other results |
| --- | --- | --- | --- |
| 6.95 | 7.02 | Cc1ncsc1-c1ccc([C@H](C)NC(=O)[C@@H]2C[C@@H](O)CN2C(=O)[C@@H](NC(=O)CCCCCCCCCCC(=O)NCC2(C)CCC(c3ccc(Cl)cc3)=C(CN3CCN(c4ccc(C(=O)NS(=O)(=O)c5ccc(N[C@H](CCN6CCOCC6)CSc6ccccc6)c(S(=O)(=O)C(F)(F)F)c5)cc4)CC3)C2)C(C)(C)C)cc1 (stereo partly drawn) [Compound 55, N^1-((4′-chloro-4-methyl-6-((4-(4-(((4-(((R)-4-morpholino-1-(phenylthio)butan-2-yl)amino)-3-((trifluoromethyl)sulfonyl)phenyl)sulfonyl)carbamoyl)phenyl)piperazin-1-yl)methyl)-2,3,4,5-tetrahydro-[1,1′-biphenyl]-4-yl)methyl)-N^2—((S)-1-((2S,4R)-4-hydroxy-2-(((S)-1-(4-(4-methylthiazol-5-yl)phenyl)ethyl)carbamoyl)pyrrolidin-1-yl)-3,3-dimethyl-1-oxobutan-2-yl)dodecanediamide] |  |
| 7.44 | 7.48 | CC1(CNC(=O)CCCCCNc2cccc3c2C(=O)N(C2CCC(=O)NC2=O)C3=O)CCC(c2ccc(Cl)cc2)=C(CN2CCN(c3ccc(C(=O)NS(=O)(=O)c4ccc(N[C@H](CCN5CCOCC5)CSc5ccccc5)c(S(=O)(=O)C(F)(F)F)c4)cc3)CC2)C1 (stereo partly drawn) [Compound 62, 4-(4-((4′-chloro-4-((6-((2-(2,6-dioxopiperidin-3-yl)-1,3-dioxoisoindolin-4-yl)amino)hexanamido)methyl)-4-methyl-3,4,5,6-tetrahydro-[1,1′-biphenyl]-2-yl)methyl)piperazin-1-yl)-N-((4-(((R)-4-morpholino-1-(phenylthio)butan-2-yl)amino)-3-((trifluoromethyl)sulfonyl)phenyl)sulfonyl)benzamide] |  |
| 6.47 | 6.52 | Cc1ncsc1-c1ccc([C@H](C)NC(=O)[C@@H]2C[C@@H](O)CN2C(=O)[C@@H](NC(=O)CCCCC(=O)NCC2(C)CCC(c3ccc(Cl)cc3)=C(CN3CCN(c4ccc(C(=O)NS(=O)(=O)c5ccc(N[C@H](CCN6CCOCC6)CSc6ccccc6)c(S(=O)(=O)C(F)(F)F)c5)cc4)CC3)C2)C(C)(C)C)cc1 (stereo partly drawn) [Compound 49, N′-((4′-chloro-4-methyl-6-((4-(4-(((4-(((R)-4-morpholino-1-(phenylthio)butan-2-yl)amino)-3-((trifluoromethyl)sulfonyl)phenyl)sulfonyl)carbamoyl)phenyl)piperazin-1-yl)methyl)-2,3,4,5-tetrahydro-[1,1′-biphenyl]-4-yl)methyl)-N^6—((S)-1-((2S,4R)-4-hydroxy-2-(((S)-1-(4-(4-methylthiazol-5-yl)phenyl)ethyl)carbamoyl)pyrrolidin-1-yl)-3,3-dimethyl-1-oxobutan-2-yl)adipamide] |  |
| 6.85 | 7.33 | Cc1ncsc1-c1ccc([C@H](C)NC(=O)[C@@H]2C[C@@H](O)CN2C(=O)[C@@H](NC(=O)CCCCCCC(=O)NCC2(C)CCC(c3ccc(Cl)cc3)=C(CN3CCN(c4ccc(C(=O)NS(=O)(=O)c5ccc(N[C@H](CCN6CCOCC6)CSc6ccccc6)c(S(=O)(=O)C(F)(F)F)c5)cc4)CC3)C2)C(C)(C)C)cc1 (stereo partly drawn) [Compound 51, N^1-((4′-chloro-4-methyl-6-((4-(4-(((4-(((R)-4-morpholino-1-(phenylthio)butan-2-yl)amino)-3-((trifluoromethyl)sulfonyl)phenyl)sulfonyl)carbamoyl)phenyl)piperazin-1-yl)methyl)-2,3,4,5-tetrahydro-[1,1′-biphenyl]-4-yl)methyl)-N^8—((S)-1-((2S,4R)-4-hydroxy-2-(((S)-1-(4-(4-methylthiazol-5-yl)phenyl)ethyl)carbamoyl)pyrrolidin-1-yl)-3,3-dimethyl-1-oxobutan-2-yl)octanediamide] |  |
| 6.48 | 6.39 | Cc1ncsc1-c1ccc([C@H](C)NC(=O)[C@@H]2C[C@@H](O)CN2C(=O)[C@@H](NC(=O)CCCCCCCCCCCC(=O)NCC2(C)CCC(c3ccc(Cl)cc3)=C(CN3CCN(c4ccc(C(=O)NS(=O)(=O)c5ccc(N[C@H](CCN6CCOCC6)CSc6ccccc6)c(S(=O)(=O)C(F)(F)F)c5)cc4)CC3)C2)C(C)(C)C)cc1 (stereo partly drawn) [Compound 56, N^1-((4′-chloro-4-methyl-6-((4-(4-(((4-(((R)-4-morpholino-1-(phenylthio)butan-2-yl)amino)-3-((trifluoromethyl)sulfonyl)phenyl)sulfonyl)carbamoyl)phenyl)piperazin-1-yl)methyl)-2,3,4,5-tetrahydro-[1,1′-biphenyl]-4-yl)methyl)-N^13—((S)-1-((2S,4R)-4-hydroxy-2-(((S)-1-(4-(4-methylthiazol-5-yl)phenyl)ethyl)carbamoyl)pyrrolidin-1-yl)-3,3-dimethyl-1-oxobutan-2-yl)tridecanediamide] |  |
|  |  | Cc1ncsc1-c1ccc([C@H](C)NC(=O)[C@@H]2C[C@@H](O)CN2C(=O)[C@@H](NC(=O)CCCCCCC(=O)NC2CCN(CC3(C)CCC(c4ccc(Cl)cc4)=C(CN4CCN(c5ccc(C(=O)NS(=O)(=O)c6ccc(N[C@H](CCN7CCOCC7)CSc7ccccc7)c(S(=O)(=O)C(F)(F)F)c6)cc5)CC4)C3)CC2)C(C)(C)C)cc1 (stereo partly drawn) [degrader #38, N1-(1-((4′-chloro-4-methyl-6-((4-(4-(((4-(((R)-4-morpholino-1-(phenylthio)butan-2-yl)amino)-3-((trifluoromethyl)sulfonyl)phenyl)sulfonyl)carbamoyl)phenyl)piperazin-1-yl)methyl)-2,3,4,5-tetrahydro-[1,1′-biphenyl]-4-yl)methyl)piperidin-4-yl)-N8-((S)-1-((2S,4R)-4-hydroxy-2-(((S)-1-(4-(4-methylthiazol-5-yl)phenyl)ethyl)carbamoyl)pyrrolidin-1-yl)-3,3-dimethyl-1-oxobutan-2-yl)octanediamide] | pIC50 (MOLT-4 cells [2]; Homo sapiens, MOLT-4, 48 h): 6.82 to 7.30; pIC50 (RS4;11 cells; Homo sapiens, RS4-11, 48 h): > 7.30 |
|  |  | (2S,4R)-1-((S)-2-(11-(4-(4-chlorophenyl)-5-((4-(4-(((4-(((R)-4-morpholino-1-(phenylthio)butan-2-yl)amino)-3-((trifluoromethyl)sulfonyl)phenyl)sulfonyl)carbamoyl)phenyl)piperazin-1-yl)methyl)-3,6-dihydropyridin-1(2H)-yl)-11-oxoundecanamido)-3,3-dimethylbutanoyl)-4-hydroxy-N—((S)-1-(4-(4-methylthiazol-5-yl)phenyl)ethyl)pyrrolidine-2-carboxamide [Example 6] | pIC50 (MOLT-4 cells [2]): 6.82 to 7.30; pIC50 (RS4;11 cells): > 7.30 |
|  |  | Cc1ncsc1-c1ccc([C@H](C)NC(=O)[C@@H]2C[C@@H](O)CN2C(=O)[C@@H](NC(=O)CCCCCCCC(=O)NCCN(C)CC2(C)CCC(c3ccc(Cl)cc3)=C(CN3CCN(c4ccc(C(=O)NS(=O)(=O)c5ccc(N[C@H](CCN6CCOCC6)CSc6ccccc6)c(S(=O)(=O)C(F)(F)F)c5)cc4)CC3)C2)C(C)(C)C)cc1 (stereo partly shown) [compound 62] | pIC50 (MOLT-4 cells [2]; Homo sapiens, MOLT-4, 48 h): 6.30 to 6.82; pIC50 (RS4;11 cells; Homo sapiens, RS4-11, 48 h): > 7.30 |
